US20230339889A1, “DERIVATIVES OF 2-OXO-N-(4-(PYRIMIDIN-4-YLOXY/THIO)PHENYL)-1,2-DIHYDROPYRIDINE-3-CARBOXAMIDE FOR USE AS PROTEIN KINASE INHIBITORS FOR THERAPY” (AUCENTRA THERAPEUTICS PTY LTD, priority 2020, published 2023)

Assays:
MV4-11 = assay: Proliferation assay (MTT, leukaemia cancer cell line); type: cell-based; details: Homo sapiens; 1 µM compound, MV4-11 cells
Text: Compounds from Example 1 were subjected to standard resazurin and MTT assays on solid tumour and leukaemia cancer cell lines, respectively, as previously reported (Wang S et al., J Med Chem 47:1662-1675, 2004 and Diab S et al., CheMedChem 9:962-972, 2014).

FLT3-ITD = assay: ADP Glo Kinase assay; type: biochemical; details: 1 µM compound
Description: (§1) Inhibition of CDKs and FLT3 were determined using ADP Glo Kinase assays, as previously described in International Patent Publication No WO 2017/020065.

MET = target: T1, MET (Homo sapiens, UniProt P08581); assay: Filter-binding radiometric kinase activity assay (KinaseProfiler, Eurofins); type: biochemical; details: 1 µM compound; read-out: % Residual enzymatic activity at 1 µM MET
T1 construct: purchased Eurofins Discovery (Kinase Profiler service)
Description: (§2) Filter-binding radiometric kinase activity assay (Kinase Profiler™) from Eurofins Discovery was used to determine the % of inhibition and/or IC50 values. […] The reaction is initiated by the addition of the Mg/ATP mixture. After incubation for 40 minutes at room temperature, the reaction is stopped by the addition of phosphoric acid to a concentration of 0.5%. 10 µL of the reaction is then spotted onto a P30 filter mat and washed four times for 4 minutes in 0.425% phosphoric acid and once in methanol prior to drying and scintillation counting. The IC50 values were derived by fitting a sigmoidal dose-response curve to a plot of assay readout over inhibitor concentration. All fits were computed with the GraphPad Prism Software (San Diego, CA, United States of America). Ki values were derived from IC5o values using Cheng Prusoff equation (Cheng Y et al., Biochem Pharmacol 22(23):3099-3108, 1973).

TYRO3 = target: T2, TYRO3 (Homo sapiens, UniProt Q06418); assay: as above; type: biochemical; details: 1 µM compound; read-out: % Residual enzymatic activity at 1 µM TYRO3
T2 construct: purchased Eurofins Discovery (Kinase Profiler service)
T2 sequence (Q06418 41-890): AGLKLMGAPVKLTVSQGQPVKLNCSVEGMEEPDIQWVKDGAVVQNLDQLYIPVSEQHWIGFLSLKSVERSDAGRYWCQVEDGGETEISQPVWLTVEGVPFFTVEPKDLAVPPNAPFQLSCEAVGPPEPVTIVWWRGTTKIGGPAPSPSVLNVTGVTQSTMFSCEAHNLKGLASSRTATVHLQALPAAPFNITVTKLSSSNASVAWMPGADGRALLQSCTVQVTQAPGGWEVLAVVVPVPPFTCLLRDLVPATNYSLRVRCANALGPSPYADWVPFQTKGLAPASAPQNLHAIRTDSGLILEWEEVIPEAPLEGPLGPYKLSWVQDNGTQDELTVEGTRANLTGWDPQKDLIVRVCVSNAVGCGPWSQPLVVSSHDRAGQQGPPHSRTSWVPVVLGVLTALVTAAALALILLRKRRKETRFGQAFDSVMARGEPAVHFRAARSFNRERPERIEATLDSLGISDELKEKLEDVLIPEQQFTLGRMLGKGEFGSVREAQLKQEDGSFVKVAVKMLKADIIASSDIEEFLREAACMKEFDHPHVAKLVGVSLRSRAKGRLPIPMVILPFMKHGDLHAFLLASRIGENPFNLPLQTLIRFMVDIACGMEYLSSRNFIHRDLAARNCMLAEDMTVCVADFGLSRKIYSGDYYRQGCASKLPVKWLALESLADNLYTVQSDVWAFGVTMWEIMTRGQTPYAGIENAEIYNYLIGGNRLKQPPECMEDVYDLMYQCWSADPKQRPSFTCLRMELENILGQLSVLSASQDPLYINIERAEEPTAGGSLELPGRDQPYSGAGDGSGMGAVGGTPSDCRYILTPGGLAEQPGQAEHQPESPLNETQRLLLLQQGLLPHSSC
Description: as §2

Mer = target: T3, Mer (Homo sapiens, UniProt Q12866); assay: as above; type: biochemical; details: 1 µM compound; read-out: % Residual enzymatic activity at 1 µM Mer
T3 construct: purchased Eurofins Discovery (Kinase Profiler service)
T3 sequence (Q12866 21-999): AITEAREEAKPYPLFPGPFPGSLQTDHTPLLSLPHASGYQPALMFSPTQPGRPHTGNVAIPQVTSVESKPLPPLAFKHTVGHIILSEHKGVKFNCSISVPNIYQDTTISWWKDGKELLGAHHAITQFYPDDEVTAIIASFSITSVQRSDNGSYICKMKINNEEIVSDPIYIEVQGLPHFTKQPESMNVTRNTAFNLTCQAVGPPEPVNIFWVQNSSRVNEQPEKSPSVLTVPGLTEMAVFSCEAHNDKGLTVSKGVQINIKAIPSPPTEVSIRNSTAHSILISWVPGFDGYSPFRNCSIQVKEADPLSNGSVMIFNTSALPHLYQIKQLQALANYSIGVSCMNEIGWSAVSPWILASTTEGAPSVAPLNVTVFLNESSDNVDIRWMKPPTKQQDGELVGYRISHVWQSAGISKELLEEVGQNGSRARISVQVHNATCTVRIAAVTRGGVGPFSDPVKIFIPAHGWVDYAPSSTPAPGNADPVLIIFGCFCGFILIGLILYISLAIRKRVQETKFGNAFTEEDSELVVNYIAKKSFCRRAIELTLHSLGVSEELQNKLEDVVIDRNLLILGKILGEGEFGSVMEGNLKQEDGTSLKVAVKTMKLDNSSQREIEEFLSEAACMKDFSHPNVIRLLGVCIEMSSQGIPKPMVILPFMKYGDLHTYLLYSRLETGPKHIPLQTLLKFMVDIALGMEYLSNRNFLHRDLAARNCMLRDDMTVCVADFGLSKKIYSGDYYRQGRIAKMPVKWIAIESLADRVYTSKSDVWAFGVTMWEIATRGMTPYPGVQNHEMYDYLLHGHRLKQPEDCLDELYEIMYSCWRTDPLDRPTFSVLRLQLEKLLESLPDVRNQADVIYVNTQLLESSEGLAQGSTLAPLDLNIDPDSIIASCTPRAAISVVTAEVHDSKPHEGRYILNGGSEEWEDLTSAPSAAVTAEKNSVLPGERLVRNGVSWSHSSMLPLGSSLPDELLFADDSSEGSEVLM
Description: as §2

AXL = target: T4, AXL (Homo sapiens, UniProt P30530); assay: as above; type: biochemical; details: 1 µM compound; read-out: % Residual enzymatic activity at 1 µM AXL
T4 construct: purchased Eurofins Discovery (Kinase Profiler service)
T4 sequence (P30530 26-894): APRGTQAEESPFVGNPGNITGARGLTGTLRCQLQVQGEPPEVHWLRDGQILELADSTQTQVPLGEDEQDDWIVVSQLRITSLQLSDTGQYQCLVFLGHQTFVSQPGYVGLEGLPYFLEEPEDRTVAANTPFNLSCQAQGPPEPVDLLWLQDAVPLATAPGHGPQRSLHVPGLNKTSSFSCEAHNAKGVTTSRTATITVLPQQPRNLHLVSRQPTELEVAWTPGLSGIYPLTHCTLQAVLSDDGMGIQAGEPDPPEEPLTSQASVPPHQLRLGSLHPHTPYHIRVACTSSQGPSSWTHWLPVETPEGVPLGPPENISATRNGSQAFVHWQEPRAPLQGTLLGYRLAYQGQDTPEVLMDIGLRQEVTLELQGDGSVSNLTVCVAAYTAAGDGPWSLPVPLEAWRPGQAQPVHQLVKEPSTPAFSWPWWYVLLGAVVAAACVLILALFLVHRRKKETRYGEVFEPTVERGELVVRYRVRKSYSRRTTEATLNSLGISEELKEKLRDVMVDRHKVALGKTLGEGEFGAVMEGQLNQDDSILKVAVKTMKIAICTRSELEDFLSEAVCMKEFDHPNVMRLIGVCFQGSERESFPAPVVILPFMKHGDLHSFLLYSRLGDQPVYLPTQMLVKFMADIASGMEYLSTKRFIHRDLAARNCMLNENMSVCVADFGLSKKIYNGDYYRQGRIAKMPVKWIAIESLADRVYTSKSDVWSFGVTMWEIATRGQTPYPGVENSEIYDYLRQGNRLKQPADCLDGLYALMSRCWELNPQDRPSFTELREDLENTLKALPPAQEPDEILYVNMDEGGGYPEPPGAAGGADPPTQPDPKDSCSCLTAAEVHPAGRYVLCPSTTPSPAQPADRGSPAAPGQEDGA
Description: as §2

CDK2E = CDK2E (Homo sapiens, UniProt P24941); assay: ADP Glo Kinase assay; type: biochemical; details: 1 µM compound; read-out: % Residual enzymatic activity at 1 µM CDK2E
Description: as §1

CDK4D1 = CDK4D1 (Homo sapiens, UniProt P11802); assay: ADP Glo Kinase assay; type: biochemical; details: 1 µM compound; read-out: % Residual enzymatic activity at 1 µM CDK4D1
Description: as §1

T1 sequence (P08581 25-1390): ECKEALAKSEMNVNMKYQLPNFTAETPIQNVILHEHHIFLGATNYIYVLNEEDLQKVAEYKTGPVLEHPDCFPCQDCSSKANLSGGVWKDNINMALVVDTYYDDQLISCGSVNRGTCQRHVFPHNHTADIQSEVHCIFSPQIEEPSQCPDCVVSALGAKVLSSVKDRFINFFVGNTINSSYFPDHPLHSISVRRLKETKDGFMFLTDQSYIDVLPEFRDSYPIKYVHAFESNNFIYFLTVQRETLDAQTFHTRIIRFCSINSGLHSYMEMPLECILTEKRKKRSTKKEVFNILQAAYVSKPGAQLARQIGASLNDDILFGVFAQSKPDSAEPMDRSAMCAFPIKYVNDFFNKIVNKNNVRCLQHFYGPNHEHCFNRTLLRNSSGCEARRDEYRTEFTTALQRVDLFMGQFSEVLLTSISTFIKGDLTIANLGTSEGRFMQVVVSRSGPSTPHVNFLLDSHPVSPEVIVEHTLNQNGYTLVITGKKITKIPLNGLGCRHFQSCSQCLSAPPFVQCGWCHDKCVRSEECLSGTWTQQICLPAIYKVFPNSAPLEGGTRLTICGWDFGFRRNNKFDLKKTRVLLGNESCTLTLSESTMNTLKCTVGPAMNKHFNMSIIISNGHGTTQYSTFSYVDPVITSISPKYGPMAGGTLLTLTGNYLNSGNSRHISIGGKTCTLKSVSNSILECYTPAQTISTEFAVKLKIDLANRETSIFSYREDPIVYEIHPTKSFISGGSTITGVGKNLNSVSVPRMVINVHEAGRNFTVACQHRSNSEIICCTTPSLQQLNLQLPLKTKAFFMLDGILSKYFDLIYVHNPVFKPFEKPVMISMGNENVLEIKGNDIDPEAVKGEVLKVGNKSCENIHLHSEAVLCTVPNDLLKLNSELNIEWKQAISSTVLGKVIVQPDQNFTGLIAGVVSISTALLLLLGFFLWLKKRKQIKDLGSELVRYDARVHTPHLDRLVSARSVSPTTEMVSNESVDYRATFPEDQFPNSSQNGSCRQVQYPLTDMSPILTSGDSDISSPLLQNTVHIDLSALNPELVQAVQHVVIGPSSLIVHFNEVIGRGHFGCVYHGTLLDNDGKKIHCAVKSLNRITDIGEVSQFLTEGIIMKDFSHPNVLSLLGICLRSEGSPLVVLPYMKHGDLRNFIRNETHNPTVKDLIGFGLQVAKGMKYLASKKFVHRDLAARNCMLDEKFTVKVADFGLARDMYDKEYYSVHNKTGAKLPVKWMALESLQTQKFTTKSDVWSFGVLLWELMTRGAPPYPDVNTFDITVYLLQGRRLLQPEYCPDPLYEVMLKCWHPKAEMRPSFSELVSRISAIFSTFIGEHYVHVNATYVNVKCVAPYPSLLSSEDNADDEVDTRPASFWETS
Sequence of CDK4D1 (P11802 whole entry): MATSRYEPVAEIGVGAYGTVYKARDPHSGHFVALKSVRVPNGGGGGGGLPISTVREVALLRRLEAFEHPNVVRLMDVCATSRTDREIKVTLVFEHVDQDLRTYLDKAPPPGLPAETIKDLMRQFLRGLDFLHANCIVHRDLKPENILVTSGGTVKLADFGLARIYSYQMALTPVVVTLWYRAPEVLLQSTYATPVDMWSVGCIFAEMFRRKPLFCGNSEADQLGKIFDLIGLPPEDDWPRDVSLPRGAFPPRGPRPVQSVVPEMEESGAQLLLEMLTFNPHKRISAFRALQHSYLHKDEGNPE
Sequence of CDK4D1 (P24385 whole entry partner): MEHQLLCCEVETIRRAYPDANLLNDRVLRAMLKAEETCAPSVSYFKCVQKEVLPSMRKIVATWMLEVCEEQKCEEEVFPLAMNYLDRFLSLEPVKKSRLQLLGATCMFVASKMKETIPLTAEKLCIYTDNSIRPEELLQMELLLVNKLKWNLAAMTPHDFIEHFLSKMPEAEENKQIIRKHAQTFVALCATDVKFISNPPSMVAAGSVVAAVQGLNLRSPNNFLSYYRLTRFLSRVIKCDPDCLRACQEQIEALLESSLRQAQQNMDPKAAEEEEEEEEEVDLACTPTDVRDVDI

% Residual enzymatic activity at 1 µM FLT3-ITD (FLT3-ITD)	remaining activity at 1 µM (MET)	remaining activity at 1 µM (TYRO3)	remaining activity at 1 µM (Mer)	remaining activity at 1 µM (AXL)	remaining activity at 1 µM (CDK2E)	remaining activity at 1 µM (CDK4D1)	Structure (SMILES)	activity at 1 µM (MV4-11)
43%	93%	63%	89%	57%			Nc1ncnc(Oc2ccc(NC(=O)c3cccn(-c4ccc(F)cc4)c3=O)cc2Cl)c1F [Cmpd 22, N-(4-((6-amino-5-fluoropyrimidin-4-yl)oxy)-3-chlorophenyl)-1-(4-fluorophenyl)-2-oxo-1,2-dihydropyridine-3-carboxamide]	3%
51%	98%	63%	95%	67%			Nc1ncnc(Oc2ccc(NC(=O)c3cccn(-c4ccc(F)cc4)c3=O)cc2Cl)c1Cl [Cmpd 23, N-(4-((6-amino-5-chloropyrimidin-4-yl)oxy)-3-chlorophenyl)-1-(4-fluorophenyl)-2-oxo-1,2-dihydropyridine-3-carboxamide]	1%
52%	2%	0%	1%	2%	94%	38%	CCOc1ccn(-c2ccc(F)cc2)c(=O)c1C(=O)Nc1ccc(Oc2ncnc(N)c2Cl)c(F)c1 [Cmpd 2, N-(4-((6-amino-5-chloropyrimidin-4-yl)oxy)-3-fluorophenyl)-4-ethoxy-1-(4-fluorophenyl)-2-oxo-1,2-dihydropyridine-3-carboxamide]	15%
